Data on 2 compounds can be found in ChEMBL document CHEMBL1148602, “Synthesis and biological evaluation of new pentaphyrin macrocycles for photodynamic therapy” (J Med Chem, 2006).

One may read the IC50 as the concentration that inhibits the measured activity by half. A high value points to weaker potency.

The structures appear in SMILES notation. Converted amounts (≈) assume the structure as drawn. The source made the active and inactive calls. The calls are words filed in the database; no cut-off is given here.

What all share (assay type): functional, cell-based
The test system of test [1] is PANC-1. As to the kind of experiment: Cytotoxicity against human pancreatic adenocarcinomas Panc1 cell line irradiated with white light at the fluence of 15 J/cm2. The note with it: PANC-1, light or radiation study.
Test [2] deals with HeLa. As to the kind of experiment: Cytotoxicity against human cervix adenocarcinomas HeLa cell line irradiated with white light at the fluence of 15 J/cm2. The settings on record: light or radiation study.
The subject of test [3] is IMR-90. As to the kind of experiment: Cytotoxicity against human transformed fibroblast IMR90 E1A cell line irradiated with white light at the fluence of 30 J/cm2. The settings on record: IMR-90, light or radiation study.
The test system of test [4] is K562. As to the kind of experiment: Cytotoxicity against human chronic myelogenous leukemia K562 cell line irradiated with white light at the fluence of 15 J/cm2. The settings on record: K562, light or radiation study.
Test [5] has as its system HeLa. As to the kind of experiment: Cytotoxicity against human cervix adenocarcinomas HeLa cell line irradiated with white light at the fluence of 30 J/cm2. The note with it: light or radiation study.
In test [6] the test system is K562. As to the kind of experiment: Cytotoxicity against human chronic myelogenous leukemia K562 cell line without light irradiation by MTT assay at 3-12 ug/ml.
The subject of test [7] is K562. As to the kind of experiment: Effect on apoptotic fragmentation in K562 cells at 3 ug/ml and irradiation at 8 mW/cm2 for 60 min. The note with it: Homo sapiens.
For test [8], the system named is K562. As to the kind of experiment: Activation of Caspase 3 and 7 in K562 cells at 3 ug/ml and irradiation of 15 J/cm2 for 8 hrs. The note with it: Homo sapiens.
Test [9] concerns IMR-90. As to the kind of experiment: Effect on apoptotic fragmentation in IMR90 E1A cells at 3 ug/ml and irradiation at 8 mW/cm2 for 60 min. The note with it: Homo sapiens.
For another test, the system named is IMR90 EIA. As to the kind of experiment: Activation of Caspase 3 and 7 in IMR90 EIA cells at 3 ug/ml and irradiation of 15 J/cm2 for 8 hrs. The note with it: Homo sapiens.
In test [10] the test system is PANC-1. As to the kind of experiment: Cytotoxicity against human pancreatic adenocarcinomas Panc1 cell line irradiated with white light at the fluence of 30 J/cm2. The note with it: PANC-1, light or radiation study.
The test system of test [11] is HeLa. As to the kind of experiment: Internalization in cytoplasm in HeLa cells at 3 ug/ml for 24 hr by confocal microscopy after propidium iodide staining. The settings on record: Homo sapiens.
Test [12] deals with IMR-90. As to the kind of experiment: Cytotoxicity against human transformed fibroblast IMR90 E1A cell line irradiated with white light at the fluence of 15 J/cm2. The note with it: IMR-90, light or radiation study.
Test [13] deals with IMR-90. As to the kind of experiment: Cytotoxicity against human transformed fibroblast IMR90 E1A cell line without light irradiation by MTT assay at 3-12 ug/ml.
Test [14] concerns K562. As to the kind of experiment: Cytotoxicity against human chronic myelogenous leukemia K562 cell line irradiated with white light at the fluence of 30 J/cm2. The note with it: K562, light or radiation study.

Regarding `CCC1=C(C)C2=NC/1=C\c1[nH]c(c(CC)c1CC)/C=c1\[nH]/c(c(C)c1CC)=C\c1ccc([nH]1)/C(c1ccccc1)=c1/cc/c([nH]1)=C/2`, the IC50 amounted to 9.8 µg/mL (≈ 16.2 µM) with PANC-1 [1]; 5.8 µg/mL (≈ 9.57 µM) in the test on HeLa [2]; 3.2 µg/mL (≈ 5.28 µM) in the test on IMR-90 [3]; 3.6 µg/mL (≈ 5.94 µM) in the test on K562 [4]; 3.8 µg/mL (≈ 6.27 µM) in the test with HeLa [5]; 4.6 µg/mL (≈ 7.59 µM) in the test on PANC-1 [10]. Also, the IC50 in the test with IMR-90 [12] is 4.2 µg/mL (≈ 6.93 µM); with K562 [14], 2.9 µg/mL (≈ 4.79 µM). Further, the Activity entry in the test with K562 [6] and with IMR-90 [13] was “Toxic” in each case. The outcome in the test on K562 [7], in the test with K562 [8], in the test on IMR-90 [9], in the test with IMR90 EIA and in the test on HeLa [11] was Active.
`CCC1=C(C)C2=NC/1=C\c1[nH]c(c(CC)c1CC)/C=c1\[nH]/c(c(C)c1CC)=C\C1=NC(C=C1)/C(c1ccccc1)=c1/cc/c([nH]1)=C/2` (stereo not given): the IC50 in the test with PANC-1 [1] was 9.7 µg/mL (≈ 16 µM); in the test on HeLa [2], 4.8 µg/mL (≈ 7.92 µM); in the test with IMR-90 [3], 2.3 µg/mL (≈ 3.8 µM); in the test with K562 [4], 2 µg/mL (≈ 3.3 µM); with HeLa [5] it was 2.6 µg/mL (≈ 4.29 µM); in the test with PANC-1 [10], 3.9 µg/mL (≈ 6.44 µM). Moreover, the IC50 in the test on IMR-90 [12] came out at 4 µg/mL (≈ 6.6 µM); with K562 [14] it was 1.5 µg/mL (≈ 2.48 µM). For the same compound, the Activity result with K562 [6] and in the test on IMR-90 [13] was “Toxic” in each case. Moreover, the outcome in the test with K562 [7], in the test on K562 [8], with IMR-90 [9], in the test on IMR90 EIA and in the test with HeLa [11] was Active.
